Laboratory results from US20250122190A1, “HALOGEN-SUBSTITUTED PYRIDAZINONE COMPOUND AND APPLICATION THEREOF” (MEDSHINE DISCOVERY INC., priority 2021, published 2025).
pIC50: −log10 of the molar value.

What follows are compounds tested against T1, hTRPC5-T478C (Homo sapiens, UniProt Q9UL62) (assay: hTRPC5-T478C FLIPR calcium flux IC50 assay). Settings: hTRPC5-T478C-HEK cells, Englerin A as channel agonist.
T1 sequence (Q9UL62 1-973): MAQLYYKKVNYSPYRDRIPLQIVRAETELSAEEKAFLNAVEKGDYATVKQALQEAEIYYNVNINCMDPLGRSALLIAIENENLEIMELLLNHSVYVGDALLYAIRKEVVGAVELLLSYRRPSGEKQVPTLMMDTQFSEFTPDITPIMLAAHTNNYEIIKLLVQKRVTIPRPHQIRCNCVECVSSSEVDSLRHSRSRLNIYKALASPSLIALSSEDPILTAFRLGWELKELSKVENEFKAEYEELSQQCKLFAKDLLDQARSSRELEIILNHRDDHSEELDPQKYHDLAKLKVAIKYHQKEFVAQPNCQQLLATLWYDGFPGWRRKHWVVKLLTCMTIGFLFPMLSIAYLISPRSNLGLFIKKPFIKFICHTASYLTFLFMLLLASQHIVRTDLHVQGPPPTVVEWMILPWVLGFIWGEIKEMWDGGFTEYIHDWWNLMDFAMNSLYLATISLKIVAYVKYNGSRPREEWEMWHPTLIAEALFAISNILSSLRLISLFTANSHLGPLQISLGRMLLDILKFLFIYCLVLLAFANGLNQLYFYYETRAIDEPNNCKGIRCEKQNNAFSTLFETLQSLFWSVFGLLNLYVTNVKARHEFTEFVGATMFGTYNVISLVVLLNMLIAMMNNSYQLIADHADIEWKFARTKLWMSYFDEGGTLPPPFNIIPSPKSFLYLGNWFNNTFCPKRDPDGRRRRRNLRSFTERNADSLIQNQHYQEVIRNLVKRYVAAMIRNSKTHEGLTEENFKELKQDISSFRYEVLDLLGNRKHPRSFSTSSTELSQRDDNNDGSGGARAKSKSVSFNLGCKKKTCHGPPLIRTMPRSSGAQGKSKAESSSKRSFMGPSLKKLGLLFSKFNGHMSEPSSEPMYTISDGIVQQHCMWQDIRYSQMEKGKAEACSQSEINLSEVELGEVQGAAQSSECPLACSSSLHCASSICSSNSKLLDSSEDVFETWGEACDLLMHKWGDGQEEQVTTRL
Assay type: cell-based
Description: Cell culture: hTRPC5-T478C-HEK cells were cultured in a humid environment in 5% CO2 at 37° C.
Cell culture medium ingredients: • DMEM, Supplier: Gibco, Catalog No. 11965-092; • FBS, Supplier: Gibco, Catalog No. 10099-141C, Concentration: 10%; • Pen/Strep, Supplier: Invitrogen, Catalog No. 15140-122, Concentration: 1%; • Zeocin, Supplier: Invitrogen, Catalog No. R25005, Concentration: 200 μg/mL; • Blasticidin S, Supplier: Invitrogen, Catalog No. R21001, Concentration: 5 μg/mL.
In general, the TRPC5-T478C cell line was passaged three times weekly. The dilution factor for each passage was 1:3. Once the cells reached about 80% confluence in the T-75 flask, the cell line was digested with trypsin for about 1 minute and the cell suspension was removed from the flask with a pipette. Depending on the dilution ratio, the removed cell suspension would be transferred to another T-75 flask containing cell culture medium. Note that in order to maintain the logarithmic growth of the cells, the confluence of the cells should be maintained at the subconfluent stage and the cells should be passaged once every 2 to 3 days depending on the proliferation rate of the cell line.
(1) Preparation of cell plate: the cells were separated according to the above-mentioned passaging and the cell density and viability were determined using a cell counter. The volume of the cell suspension was adjusted with a cell culture medium. After the density reached to the plating density, 1 μg/mL tetracycline was added to induce hTRPC5-T478C channel expression. The induced hTRPC5-T478C cells were then seeded onto poly-D-lysine (PDL)-coated 384-well plates at a density of 20000 cells/well (30 μL/well). Then the cells were cultured overnight in a cell culture incubator.
(2) Preparation of compound plate: the compounds were generally diluted with DMSO, prepared into a mother liquor and stored in a −20° C. refrigerator. A compound plating program was set on the ECHO processor, and the compounds were plated with ECHO according to the concentration gradient that was already set. In general, 9 concentrations were included with the highest concentration at 10 μM, 3-fold dilution, and 2 replicate wells. Englerin A was used as the channel agonist.
(3) On-machine testing: the cell plates and compound plates were prepared according to the above-mentioned methods. After the cell confluence of the cell plate reached 80%-90%, the cells were removed from the incubator and the testing started. Ca5 dye (Molecular Devices #R8185) was formulated with test buffer. After the cell plate culture medium was removed with Bravo, 25 μL of Ca5 dye was added to each well, and the plate was incubated for 1 hour. After 1 hour, the cell plate and compound plate were placed in FLIPR^TETRA (Molecular Devices, USA) for FLIPR detection.
Data analysis was performed using Excel 2013 (Microsoft, USA) software and GraphPad Prism 6.01 software. The maximum signal was generated by FLIPR software. Data analysis was performed using Excel (2013) and Prism 6.01. Data quality and data stability were controlled using S/B>2.50 and Z factor>0.50. The calculation formula was as follows: S/B=Avg100%/Avg0%; Z factor=1−(3*SD100%+3*SDO %)/|Avg100%-Avg0%.

| SMILES | pIC50 |
| --- | --- |
| O=c1[nH]ncc(N2CCc3c(nc(CO)nc3Sc3ccc(F)cc3C(F)(F)F)C2)c1Cl [Compound WX012] | 7.62 |
| O=c1[nH]ncc(N2CCc3c(ncnc3Sc3ccc(F)cc3C(F)(F)F)C2)c1Cl [Compound WX002] | 7.57 |
| O=c1[nH]ncc(N2CCc3c(ncnc3Oc3ccc(F)cc3C(F)(F)F)C2)c1Br [Compound WX009] | 7.43 |
| COCc1nc2c(c(Oc3ccc(F)cc3C(F)(F)F)n1)CCN(c1cn[nH]c(=O)c1Cl)C2 [Compound WX011] | 7.10 |
| O=c1[nH]ncc(N2CCc3c(ncnc3Oc3ccc(F)cc3Br)C2)c1Cl [Compound WX004] | 7.40 |
| CC(F)(F)c1cc(F)ccc1Oc1ncnc2c1CCN(c1cn[nH]c(=O)c1Cl)C2 [Compound WX010] | 7.15 |
| Nc1nc2c(c(Sc3ccc(F)cc3C(F)(F)F)n1)CCN(c1cn[nH]c(=O)c1Cl)C2 [Compound WX013] | 7.25 |
